# Data from patent US11975105B2 (EMPROS PHARMA AB, priority 2014, dated 2024).
# Like-named read-outs stand apart in the source and are kept apart here.
# Experiments:
# [1] = cited from earlier work; for additional weight loss relative to placebo: at one year
# [2] = cited from earlier work; for fraction of the dose absorbed: oral administration
# [3] = cited from earlier work; for frequency of side effects, comparative: human, in vivo
# [4] = pH dependent degradation when solubility from a powder was investigated at 37° C.; assay type: physicochemical; settings: FIG. 1A-B
# [5] = cited from earlier work
compound,measurement,setting,value
C[C@H]1CNCCc2ccc(Cl)cc21 [lorcaserin],additional weight loss relative to placebo,[1],~3%
same,decrease of body weight more than placebo,"[1]; human, in vivo",about 3.2 kg
same,"decrease of body weight more than placebo, of initial body weight","[1]; human, in vivo",about 3.2%
OCCN1C[C@H](O)[C@@H](O)[C@H](O)[C@H]1CO [miglitol],fraction of the dose absorbed,[2],100%
CCCCCCCCCCCCCCCCOc1nc2ccc(C)cc2c(=O)o1 [cetilistat],"frequency of side effects, comparative",[3],much lower frequency of side effects
"CCCCCCCCCCCC(CC1OC(=O)[C@H]1CCCCCC)OC(=O)C(CC(C)C)NC=O (stereo in doubt) [orlistat, (S)—((S)-1-((2S,3S)-3-Hexyl-4-oxooxetan-2-yl)tridecan-2-yl) 2-formamido-4-methylpentanoate]",pH dependent degradation,[4],A similar tendency
same,log P,[5],8.5
same,solubility in water,[5],practically insoluble in water
same,log P,[5]; listed as Orlistat,8.4
same,additional weight loss relative to placebo,[1],~3%
same,relative weight loss,"[1]; best case scenario, placebo 6%",10%
same,"patients complaining about GI side-effects (diarrhea, oily spottings, fecal urgency)",[3]; clinical trials,≥ 25%
same,plasma exposure,[2]; conventional oral dosage form,< 5 ng/mL
same,fraction of the dose absorbed,[2],< 3%
OCC(CO)N[C@H]1C[C@](O)(CO)[C@@H](O)[C@H](O)[C@H]1O [voglibose],"frequency of side effects, comparative",[3],lower frequency of GI side effects compared to acarbose
same,fraction of the dose absorbed,[2],negligibly absorbed
